Measurements published in ChEMBL document CHEMBL1201862, “PubChem BioAssay data set” (2004).
Where “and” joins values, the source holds several entries; their conditions need not be identical. Equal values may be shown once.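 96-well plates; 48 h exposure; 5 concentrations. Endpoints by linear interpolation between flanking doses. Not reached: highest tested concentration assigned. GI50 = concentration required for 50% inhibition of growth.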 Calls of active or inactive are those of the source. Cut-off read from the data, not from the text of the source: active = GI50 up to about 1.1 µM and inactive = higher.

Columns and labels:
Experiment in all cases: NCI tumour cell line growth inhibition, 48 h
NCI-H23 = system: NCI-H23
OVCAR-4 = system: OVCAR-4
NCI-H460 = system: NCI-H460
HOP-62 = system: HOP-62
SF-539 = system: SF-539
EKVX = system: EKVX
SNB-19 = system: SNB-19
COLO 205 = system: COLO 205
MOLT-4 = system: MOLT-4
NCI-H522 = system: NCI-H522
Hs-578T = system: Hs-578T
MCF7 = system: MCF7
IGROV-1 = system: IGROV-1
SF-295 = system: SF-295
CCRF-CEM = system: CCRF-CEM
OVCAR-3 = system: OVCAR-3
OVCAR-5 = system: OVCAR-5
HT-29 = system: HT-29
NCI/ADR-RES = system: NCI/ADR-RES
RXF 393 = system: RXF 393

## CC1(C=O)CCC23COC4(CCC5C6(C)CCC(OC7OCC(OC8OC(CO)C(O)C(OC9OC(CO)C(O)C(O)C9O)C8OC8OCC(O)C(O)C8O)C(O)C7OC7OC(CO)C(O)C(O)C7O)C(C)(C)C6CCC5(C)C4(C)CC2O)C3C1 (stereo not drawn)
NCI-H23
  GI50: 1.76 µM (inactive)
OVCAR-4
  GI50: 1.16 µM (inactive)
NCI-H460
  GI50: 1.29 µM (inactive)
HOP-62
  GI50: 2.13 µM (inactive)
SF-539
  GI50: 1.3 µM (inactive)
EKVX
  GI50: 1.5 µM (inactive)
SNB-19
  GI50: 0.198 µM (active)
COLO 205
  GI50: 1.3 µM (inactive)
MOLT-4
  GI50: 0.367 µM (active)
NCI-H522
  GI50: 1.68 µM (inactive)
Hs-578T
  GI50: 1.5 µM (inactive)
MCF7
  GI50: 0.822 µM (active)
IGROV-1
  GI50: 1.42 µM (inactive)
SF-295
  GI50: 0.908 µM (active)
CCRF-CEM
  GI50: 0.221 µM (active)
OVCAR-3
  GI50: 1.47 µM (inactive)
OVCAR-5
  GI50: 1.29 µM (inactive)
HT-29
  GI50: 0.849 µM (active)
NCI/ADR-RES
  GI50: 0.264 µM (active)

## c1ccc2c(Nc3ncco3)cccc2c1
NCI-H23
  GI50: > 10 µM (inactive)
OVCAR-4
  GI50: > 10 µM (inactive)
NCI-H460
  GI50: > 10 µM (inactive)
HOP-62
  GI50: > 10 µM (inactive)
SF-539
  GI50: > 10 µM (inactive)
EKVX
  GI50: > 10 µM (inactive)
SNB-19
  GI50: > 10 µM (inactive)
COLO 205
  GI50: > 10 µM (inactive)
MOLT-4
  GI50: > 10 µM (inactive)
NCI-H522
  GI50: > 10 µM (inactive)
Hs-578T
  GI50: > 10 µM (inactive)
MCF7
  GI50: > 10 µM (inactive)
IGROV-1
  GI50: > 10 µM (inactive)
SF-295
  GI50: > 10 µM (inactive)
CCRF-CEM
  GI50: > 10 µM (inactive)
OVCAR-3
  GI50: > 10 µM (inactive)
OVCAR-5
  GI50: > 10 µM (inactive)
HT-29
  GI50: > 10 µM (inactive)
NCI/ADR-RES
  GI50: > 10 µM (inactive)

## O=c1[nH]c(=O)n(C2CC(O)C(CO)O2)cc1OCCCc1ccccc1 (stereo not drawn)
NCI-H23
  GI50: > 100 µM (inactive)
OVCAR-4
  GI50: > 100 µM (inactive)
NCI-H460
  GI50: > 100 µM (inactive)
HOP-62
  GI50: > 100 µM (inactive)
EKVX
  GI50: > 100 µM (inactive)
SNB-19
  GI50: > 100 µM (inactive)
COLO 205
  GI50: > 100 µM (inactive)
MOLT-4
  GI50: > 100 µM (inactive)
NCI-H522
  GI50: > 100 µM (inactive)
Hs-578T
  GI50: > 100 µM (inactive)
MCF7
  GI50: > 100 µM (inactive)
IGROV-1
  GI50: > 100 µM (inactive)
SF-295
  GI50: > 100 µM (inactive)
CCRF-CEM
  GI50: > 100 µM (inactive)
OVCAR-3
  GI50: > 100 µM (inactive)
OVCAR-5
  GI50: > 100 µM (inactive)
HT-29
  GI50: > 100 µM (inactive)
NCI/ADR-RES
  GI50: > 100 µM (inactive)
RXF 393
  GI50: > 100 µM (inactive)

## O=C1CC(C(OCc2ccccc2)C(OCc2ccccc2)C(COCc2ccccc2)OCc2ccccc2)CC(=O)N1 (stereo not drawn)
NCI-H23
  GI50: > 75 µM (inactive)
OVCAR-4
  GI50: > 75 µM (inactive)
NCI-H460
  GI50: > 75 µM (inactive)
SF-539
  GI50: > 100 µM (inactive)
EKVX
  GI50: > 100 µM (inactive)
SNB-19
  GI50: > 75 µM (inactive)
COLO 205
  GI50: > 100 µM (inactive)
Hs-578T
  GI50: > 75 µM (inactive) and 88.7 µM (inactive)
MCF7
  GI50: > 100 µM (inactive) and 51.9 µM (inactive)
IGROV-1
  GI50: > 100 µM (inactive)
SF-295
  GI50: > 75 µM (inactive)
OVCAR-5
  GI50: > 75 µM (inactive)
HT-29
  GI50: > 75 µM (inactive)
NCI/ADR-RES
  GI50: > 75 µM (inactive)
RXF 393
  GI50: 42.9 µM (inactive) and 29.6 µM (inactive)

## COc1ccc(COC(=O)NNC(=O)C2CSC(c3ccccc3)N2C(C)=O)cc1 (stereo not drawn)
NCI-H23
  GI50: > 100 µM (inactive)
OVCAR-4
  GI50: > 100 µM (inactive)
NCI-H460
  GI50: > 100 µM (inactive)
HOP-62
  GI50: > 100 µM (inactive)
SF-539
  GI50: > 100 µM (inactive)
EKVX
  GI50: > 100 µM (inactive)
SNB-19
  GI50: > 100 µM (inactive)
MOLT-4
  GI50: > 100 µM (inactive)
NCI-H522
  GI50: > 100 µM (inactive)
Hs-578T
  GI50: > 100 µM (inactive)
MCF7
  GI50: > 100 µM (inactive)
IGROV-1
  GI50: > 100 µM (inactive)
SF-295
  GI50: > 100 µM (inactive)
CCRF-CEM
  GI50: > 100 µM (inactive)
OVCAR-3
  GI50: > 100 µM (inactive)
OVCAR-5
  GI50: > 100 µM (inactive)
HT-29
  GI50: > 100 µM (inactive)
NCI/ADR-RES
  GI50: > 100 µM (inactive)

## CC(C)CC1c2[nH]c3ccccc3c2C[C@H]2C(=O)NC(Cc3c[nH]c4ccccc34)C(=O)N12 (stereo partly drawn)
NCI-H23
  GI50: 17.7 µM (inactive)
OVCAR-4
  GI50: 15.8 µM (inactive)
HOP-62
  GI50: 20.6 µM (inactive)
EKVX
  GI50: 16 µM (inactive)
SNB-19
  GI50: 16.8 µM (inactive)
COLO 205
  GI50: 17.8 µM (inactive)
MOLT-4
  GI50: 13.2 µM (inactive)
NCI-H522
  GI50: 11.5 µM (inactive)
Hs-578T
  GI50: 7.11 µM (inactive)
MCF7
  GI50: 14.8 µM (inactive)
IGROV-1
  GI50: 15.5 µM (inactive)
SF-295
  GI50: 20.4 µM (inactive)
OVCAR-3
  GI50: 7.74 µM (inactive)
OVCAR-5
  GI50: 24.7 µM (inactive)
HT-29
  GI50: 14.9 µM (inactive)
NCI/ADR-RES
  GI50: 18 µM (inactive)
RXF 393
  GI50: 7.87 µM (inactive)

## O=c1n(Cc2ccccc2)c(=O)n2c(=O)n(Cc3ccccc3)c(=O)n12
NCI-H23
  GI50: > 100 µM (inactive)
OVCAR-4
  GI50: > 100 µM (inactive)
NCI-H460
  GI50: > 100 µM (inactive)
SF-539
  GI50: 39.8 µM (inactive)
SNB-19
  GI50: > 100 µM (inactive)
COLO 205
  GI50: 38.3 µM (inactive)
NCI-H522
  GI50: > 100 µM (inactive)
Hs-578T
  GI50: > 100 µM (inactive)
MCF7
  GI50: > 100 µM (inactive)
SF-295
  GI50: > 100 µM (inactive)
CCRF-CEM
  GI50: > 100 µM (inactive)
HT-29
  GI50: 54.6 µM (inactive)
NCI/ADR-RES
  GI50: > 100 µM (inactive)

## C/C(=N\NC(=S)N1CCCCC1)c1nc2cccnc2[nH]1
NCI-H23
  GI50: 13.6 µM (inactive)
OVCAR-4
  GI50: 4.24 µM (inactive)
NCI-H460
  GI50: 4.03 µM (inactive)
HOP-62
  GI50: 9.62 µM (inactive)
SF-539
  GI50: 6.14 µM (inactive)
EKVX
  GI50: 5.3 µM (inactive)
SNB-19
  GI50: 15.7 µM (inactive)
COLO 205
  GI50: 4.51 µM (inactive)
MOLT-4
  GI50: 3.41 µM (inactive)
NCI-H522
  GI50: 12.9 µM (inactive)
Hs-578T
  GI50: 38.8 µM (inactive)
MCF7
  GI50: 3.67 µM (inactive)
IGROV-1
  GI50: 21 µM (inactive)
SF-295
  GI50: 8.51 µM (inactive)
CCRF-CEM
  GI50: 2.79 µM (inactive)
OVCAR-3
  GI50: 5.15 µM (inactive)
OVCAR-5
  GI50: 9.66 µM (inactive)
HT-29
  GI50: 4.3 µM (inactive)
NCI/ADR-RES
  GI50: 3.83 µM (inactive)

## O=C(Nc1ccn(C2CC(O)C(CO)O2)c(=O)n1)c1ccccc1 (stereo not drawn)
NCI-H23
  GI50: > 100 µM (inactive)
OVCAR-4
  GI50: > 100 µM (inactive)
NCI-H460
  GI50: > 100 µM (inactive)
HOP-62
  GI50: > 100 µM (inactive)
SF-539
  GI50: > 100 µM (inactive)
EKVX
  GI50: > 100 µM (inactive)
SNB-19
  GI50: > 100 µM (inactive)
COLO 205
  GI50: > 100 µM (inactive)
MOLT-4
  GI50: > 100 µM (inactive)
NCI-H522
  GI50: > 100 µM (inactive)
Hs-578T
  GI50: > 100 µM (inactive)
MCF7
  GI50: > 100 µM (inactive)
IGROV-1
  GI50: > 100 µM (inactive)
SF-295
  GI50: > 100 µM (inactive)
CCRF-CEM
  GI50: > 100 µM (inactive)
OVCAR-3
  GI50: > 100 µM (inactive)
OVCAR-5
  GI50: > 100 µM (inactive)
HT-29
  GI50: > 100 µM (inactive)
NCI/ADR-RES
  GI50: > 100 µM (inactive)

## O=C1c2ccccc2C(=O)N1n1c(Cc2ccccc2)n[nH]c1=O
NCI-H23
  GI50: > 100 µM (inactive)
OVCAR-4
  GI50: > 100 µM (inactive)
NCI-H460
  GI50: > 100 µM (inactive)
HOP-62
  GI50: > 100 µM (inactive)
SF-539
  GI50: > 100 µM (inactive)
EKVX
  GI50: > 100 µM (inactive)
SNB-19
  GI50: > 100 µM (inactive)
COLO 205
  GI50: > 100 µM (inactive)
MOLT-4
  GI50: > 100 µM (inactive)
Hs-578T
  GI50: > 100 µM (inactive)
MCF7
  GI50: > 100 µM (inactive)
IGROV-1
  GI50: > 100 µM (inactive)
SF-295
  GI50: > 100 µM (inactive)
CCRF-CEM
  GI50: > 100 µM (inactive)
OVCAR-3
  GI50: > 100 µM (inactive)
OVCAR-5
  GI50: > 100 µM (inactive)
HT-29
  GI50: > 100 µM (inactive)
NCI/ADR-RES
  GI50: > 100 µM (inactive)

## Cc1c2ccccc2c(C)n2c1nc1ccccc12
NCI-H23
  GI50: 6.93 µM (inactive)
NCI-H460
  GI50: 4.1 µM (inactive)
HOP-62
  GI50: 10 µM (inactive)
SF-539
  GI50: 4.56 µM (inactive)
EKVX
  GI50: 14 µM (inactive)
SNB-19
  GI50: 9.71 µM (inactive)
MOLT-4
  GI50: 2.9 µM (inactive)
Hs-578T
  GI50: 20.2 µM (inactive)
MCF7
  GI50: 2.24 µM (inactive)
IGROV-1
  GI50: 11.6 µM (inactive)
SF-295
  GI50: 4.93 µM (inactive)
CCRF-CEM
  GI50: 5.06 µM (inactive)
OVCAR-3
  GI50: 5.41 µM (inactive)
OVCAR-5
  GI50: 16 µM (inactive)
HT-29
  GI50: 5.11 µM (inactive)
NCI/ADR-RES
  GI50: 8.57 µM (inactive)
RXF 393
  GI50: 9.44 µM (inactive)
